Test results published in patent publication US7807202B2, “Compositions for treatment of viral-induced skin lesions and methods of using same” (priority 2003, dated 2010).

How the values were obtained:
[1] = tested on: common warts; test: Case treatments of common warts on the hands by topical application (Examples 10-11); assay type: in vivo, human; conditions: Example 11, child, 15%
Text: A child presented with common verrucae on the dorsum of both hands involving the metacarpal-phalangeal joints for over 3 years. […] After 12 weeks, all warty lesions were gone. Twice a week the warts were gently scrubbed with a stiff nylon bristle brush before application of the tea tree oil emulsion to help remove the dead outer keratinized skin.
A child presented with common warts affecting the palms of both hands resistant to treatment. […] Twice weekly gentle scrubbing with a stiff nylon bristle brush before application of the emulsion to help remove the dead outer keratinized skin was performed.

[2] = tested on: Molluscum contagiosum; conditions: in vivo; cited from earlier work

Row | SMILES | outcome of earlier conventional treatment of common warts [1] | outcome of earlier conventional treatment of common warts ([1]; listed as salicylic acid) | effect on lesions caused by Molluscum contagiosum [2]
1 | O=C(O)c1ccccc1O [Salicyclic acid] | the warts multiplied and spread | failed to eradicate the viral lesions | 
2 | Nc1nc2c(ncn2COCCO)c(=O)[nH]1 [acyclovir] |  |  | no effect
